Data on nine compounds can be found in US8080235B2, “Protein kinase A reporters useful in high throughput assays” (The Johns Hopkins University, priority 2005, dated 2011).

Where two headings read alike, the source gives them in different places.

A word on the inhibition: it is the drop in the measured response relative to a control, in per cent.

The test system of experiment [1] is PKA activity. The experiment in a line: AKAR single-cell live imaging in HEK-293 cells. Conditions: for AKAR3 response in single cell imaging: HEK-293, 10 μM epinephrine, 50 μM ritodrine, IBMX alone. The format is cell-based. The method, then:
Cell Culture and Imaging. HEK-293 cells were plated onto sterilized glass coverslips in 35 mm dishes and grown to ˜50% confluency in DMEM (10% FBS at 37° C. with 5% CO2). Cells were transfected with calcium phosphate and grown for 12-24 hours before imaging. After washing once with Hanks' balanced salt solution (HBSS), cells were maintained in buffer in the dark at 20-25° C. Isoproterenol (ISO; Sigma), forskolin (Fsk; Calbiochem), H89 (Sigma) were added as indicated. Cells were imaged on a Zeiss Axiovert 200M microscope with a 40×/1.3NA oil-immersion objective lens and cooled CCD camera as described in (21). Briefly, dual emission ratio imaging used a 420DF20 excitation filter, a 450DRLP dichroic mirror, and two emission filters (475DF40 for cyan and 535DF25 for yellow). The ratios of yellow-to-cyan (for AKAR) or cyan-to-yellow (for ICUE) emissions were then calculated at different time points and normalized by dividing all ratios by the emission ratio before stimulation, setting basal emission ratio as 1.
One of the important advantages of genetically encoded reporters of the invention is that they can be targeted to subcellular locations via various targeting motifs. However, in some cases, subcellular targeting may sacrifice the response amplitude of a reporter. To determine whether the improved dynamic range of AKAR3 leads to sensitive detection of subcellular PKA activities, AKAR3 was targeted to two cellular compartments.

Experiment [2] deals with PKA activity. As to the kind of experiment: AKAR3 high-throughput screening of Johns Hopkins Clinical Compound Library. The format is cell-based. Conditions: for agonist screen: AKAR response to compound alone: 10 μM, hit = larger than 6 times the standard deviation above negative control. The procedure:
Live Cell High-Throughput Screening. […] After incubation for 24 hours, cells were washed once with HBSS and left in 190 μl of HBSS at 20-25° C. Fluorescence readings were taken as described above, with each cycle lasting 90 seconds. Following baseline acquisition, cells in each experimental well were treated with a compound from the Johns Hopkins Clinical Compound Library to a final concentration of 10 μM. Control cells were treated with 10 μL of 10% fetal bovine serum (FBS) in a solution of phosphate buffered saline (PBS) at pH 7.4, which is the solution used to dissolve library compounds.
Ten final cycles were then performed.
FRET responses were calculated as described above. […] Agonist hits were defined as compounds eliciting responses larger than six times the standard deviation above the baseline. Antagonist hits were defined as compounds which decreased the ISO stimulated response by 50% or by six times the standard deviation.
In a primary screening, 160 compounds from the Johns Hopkins Clinical Compound Library were added to AKAR3-expressing HEK-293 cells in individual wells of 96-well plates to a final concentration of 10 μM after a base line reading. Time courses were recorded to monitor any fluorescence changes upon drug addition and to identify hits which activate PKA as potential agonists.
Potential agonists were identified by selecting compounds which stimulated emission ratio changes larger than 6 times the standard deviation above the negative control (FIG. 3a ).

Experiment [3] relates to PKA activity. As to the kind of experiment: AKAR3 live cell 96-well plate reader assay (yellow/cyan emission ratio). The experiment is classed as cell-based. Conditions: for increase in yellow-to-cyan emission ratio of AKAR3: HEK-203 (sic) cells expressing AKAR3, 96-well plate, n=3. The method, then: (§1) Live Cell Plate Reading. HEK-293 cells were transfected with AKAR3 or ICUE3 using calcium phosphate at 40% confluency and grown for 40 hours. Cells were then trypsinized and plated in a Costar 3603 96-well plate (Corning) at a density of 150,000 cells per well. After incubation for another 24 hours, cells were washed once with HBSS and left in 150 μl of HBSS at 20-25° C. Fluorescence reading was taken on a FLUOstar OPTIMA fluorescence microplate reader (BMG Labtechnologies Inc.) using a 420DF20 excitation filter and two emission filters (470DF40 for cyan and 535DF25 for yellow). A baseline was established in three cycles, each consisting of a full plate reading of yellow intensity, followed by a reading of cyan intensity.
(§2) Each cycle lasted between 64 and 92 seconds. Cells were then treated with ISO, Fsk, H89, Propranolol (Pro; Sigma), or 3-isobutyl-1-methylxanthine (IBMX; Sigma) as indicated. Readings were taken in additional cycles. FRET change was calculated as the percent increase of emission ratios (yellow-to-cyan for AKAR and cyan-to-yellow for ICUE) over baseline for each well during a given cycle. Several parameters were calculated to assess the efficiency of the assay, including Z′ factor, coefficient of variation, and signal to noise (S/N) ratio (22).
AKAR2 (FIG. 4). This reporter, AKAR3 (FIG. 1b), was tested in a 96-well plate format. […] As negative controls, addition of buffer of 2% DMSO generated minimal changes in emission ratios. This 96-well plate assay was sensitive and reproducible, with a signal to noise ratio of 30.3, a Z′ factor of 0.84, and a coefficient of variation (CV) of 1.8% for the Fsk-stimulated response.
To provide specific readout of compartmentalized PKA activities, we introduced a C-terminal nuclear export signal (NES) to AKAR3 . In the plate reader assay using AKAR3 -NES (FIG. 1d), cytosolic PKA activity was recorded without contamination of nuclear activity, which has slower kinetics due to diffusional translocation of the catalytic subunit from cytosol to nucleus. […] Thus, sensor targeting provides increased temporal and spatial resolution and can be used to reveal how individual signaling microdomains, such as kinase-containing signaling complexes, are affected by drugs or other perturbations, adding another level of capacity to the non-image-based high-throughput assays of the invention.

The test system of experiment [4] is cAMP. The experiment in a line: ICUE3 live cell high-throughput cAMP plate reader assay (cyan/yellow emission ratio). The format is cell-based. The method, then:
as §1, §2
To follow the activity of the signaling pathway and to assay related drug targets in parallel, we developed a live cell-based high-throughput assay for cAMP, a second messenger that is generated via activation of Gs-coupled GPCRs and exerts its effects by activating PKA and other effectors. Similar improvement approaches were first applied to create a reporter that more than doubled the response of previous “Indicator for cAMP Using Epac” (ICUE), which generates a decrease in FRET upon binding of cAMP (FIG. 5). […] Possible sources of the variation and reduced signal are transfection efficiency and expression variability.

Experiment [5] has as its system cAMP. The experiment in a line: ICUE single cell imaging, ISO stimulation in the presence of IBMX. The experiment is classed as cell-based. Particulars: FIG. 3e, read-out: inhibition of ISO-stimulated ICUE response. The procedure: FIG. 3. High-throughput screening. FIG. 3A, normalized emission ratio (yellow/cyan) from cells expressing AKAR3 treated with individual library compounds, compared to the negative control in which only buffer was added and the positive control in which ISO (250 nM) was added (agonist screen). Individual bars along the X axis represent individual library compounds. The asterisks indicate responses of ritrodrine, ISO, and epinephrine. FIG. 3B, normalized emission ratio (yellow/cyan) from cells expressing AKAR3 first treated with individual library compounds for about 15 minutes, then stimulated by ISO (250 nM) (antagonist screen). The positive control in which only ISO was added and the negative control in which only buffer was added are shown as labeled. Individual bars along the X axis represent individual library compounds. The asterisks indicate responses from epinephrine and propranolol treated cells in response to ISO. FIG. 3C, representative time courses of emission ratio (yellow/cyan) change of cells expressing AKAR3 treated with 10 μM epinephrine followed by 50 μM FSK in single-cell imaging experiments. […]
Cell Culture and Imaging. […] The ratios of yellow-to-cyan (for AKAR) or cyan-to-yellow (for ICUE) emissions were then calculated at different time points and normalized by dividing all ratios by the emission ratio before stimulation, setting basal emission ratio as 1. […]

The target of a further experiment is catalytic subunit of PKA (Homo sapiens, UniProt P17612). As to the kind of experiment: In vitro kinase assay with purified AKAR3 protein. The experiment is classed as biochemical. Conditions: n=2. The procedure:
FIG. 7. Further characterization of AKAR3. Representative time courses of plasma membrane-targeted AKAR3 (FIG. 7a ) and nuclear-targeted AKAR3 (FIG. 7b ) in HEK-293 cells stimulated with 1 μM ISO and 50 μM FSK, respectively. FIG. 7c , AKAR3-expressing HEK-293 cells were treated with 200 nM phorbol dibutyrate (PDBu), a protein kinase C activator, followed by the addition of 1 μM isoproterenol, then 50 μM forskolin. FIG. 7d , representative time courses of the emission ratio change of AKAR3 in the presence (closed squares) and absence (open circles) of the specific PKA inhibitor, PKI. FIG. 7e , emission spectra of the purified AKAR3 before (squares) and after (diamonds) phosphorylation by PKA (excitation 434 nm). The curve using triangle symbols depicts the spectrum of the reporter after digestion with trypsin to quench the energy transfer and quantify the FRET. FIG. 7f , a representative phosphorylation time course for purified AKAR3 protein in the presence of PKA catalytic subunit and 1 mM ATP.
Lastly, in vitro kinase assays were carried out using purified AKAR3 protein from mammalian cell lysates.

In the case of `CC(NCCc1ccc(O)cc1)C(O)c1ccc(O)cc1` (stereo not shown) [ritodrine], the “AKAR3 response in single cell imaging” value in the experiment with PKA activity [1] is “moderate and gradual response”. Also, the “agonist screen: AKAR response to compound alone” value (“agonist screen: AKAR response” below) in the experiment on PKA activity [2] was “stimulated AKAR responses on their own”.
On to `O=S(=O)(NCCNC/C=C/c1ccc(Br)cc1)c1cccc2cnccc12` [H89], for which the “effect on Fsk-stimulated AKAR3 response” value with PKA activity [3] (FIG. 2d) is listed as “diminished”. Further, in the experiment on PKA activity [1] (PKI co-expression or H89 pretreatment), the “effect on AKAR3 response (PKA specificity)” value is reported as “abolished”. In addition, the “effect on Fsk-stimulated ICUE3 response” value with cAMP [4] (FIG. 2c) is recorded as “increased the ICUE3 response”.
As to `C=C[C@@]1(C)CC(=O)[C@]2(O)[C@@]3(C)[C@@H](O)CCC(C)(C)[C@@H]3[C@H](O)[C@H](OC(C)=O)[C@@]2(C)O1` [Fsk, forskolin], in the experiment on PKA activity [3], the “increase in yellow-to-cyan emission ratio of AKAR3” value is 25.7%±0.7%. In the experiment with PKA activity [1] (HEK-293, 50 μM FSK, n=3, slower kinetics, FIG. 7b), the “average nuclear response of nuclear-targeted AKAR3” value is listed as 38.6%±8.45%. In addition, the Emax came out at 43.3% in the experiment with cAMP [4] (stable cell line, read-out: maximum response of ICUE assay) and 24.1% with cAMP [4] (transient transfection, Fsk in the presence of 100 μM IBMX, FIG. 2c, read-out: maximum response of ICUE3).
On to `C=CC1=C(C)/C(=C/c2[nH]c(Cc3[nH]c(/C=C4\NC(=O)C(C)=C4C=C)c(C)c3CCC(=O)O)c(CCC(=O)O)c2C)NC1=O` [bilirubin], for which the inhibition at 1 µM with cAMP [5] (1 μM bilirubin) stood at 40%. In addition, the inhibition at 10 µM in the experiment on cAMP [5] (10 μM bilirubin) is above 60%.
For the compound `CC(C)Cn1c(=O)n(C)c(=O)c2[nH]cnc21` [IBMX, 3-isobutyl-1-methylxanthine], in the experiment with PKA activity [3] (FIG. 2), the “effect of supplementing on AKAR3 responses” value was “sustained responses and increased their amplitude”. The “effect on ritodrine-stimulated AKAR3 response” value with PKA activity [1] (100 μM IBMX after 50 μM ritodrine, FIG. 3d) is listed as “enhanced”. Moreover, in the experiment on PKA activity [1], the “AKAR3 response in single cell imaging” value is listed as “did not generate any AKAR responses”. For the same compound, the “effect of supplementing on ICUE3 responses” value in the experiment on cAMP [4] (FIG. 2) is “sustained responses and increased their amplitude”.
Turning to `CNC[C@H](O)c1ccc(O)c(O)c1` [epinephrine], the “AKAR3 response in single cell imaging” value in the experiment on PKA activity [1] was “stimulates cAMP production and PKA activation”. Moreover, the “antagonist screen: effect on ISO-stimulated AKAR response” value with PKA activity [2] (10 μM compound about 15 min, then 0.25 μM ISO) is “decreased the cell response to subsequent stimulation by ISO”. Further, the “agonist screen: AKAR response” value with PKA activity [2] is reported as “stimulated AKAR responses on their own”.
Consider “AKAR3.2: PKA reporter fusion protein SEQ ID NO:4: cerulean fluorescent protein, FHA1, SEQ ID NO:3, circularly permuted YFP variant”, for which the “dynamic range of the reporter” value with PKA activity [1] is 55-65%.
In the case of “AKAR3: PKA reporter fusion protein SEQ ID NO:1: ECFP 1-227, FHA1, PKA substrate linker SEQ ID NO:3, circularly permuted Venus”, the “increase in emission ratio (yellow over cyan) of the reporter” value with PKA activity [1] is given as “about 40%”. Moreover, the “emission ratio increase after addition of ATP” value with catalytic subunit of PKA (purified AKAR3, PKA catalytic subunit, 1 mM ATP, approximately 40 minutes) is on record as 29.1%±1.11%. In the experiment with catalytic subunit of PKA (quantified using trypsin), the “FRET efficiency after phosphorylation” value is 47.2%±7.67% and the “FRET efficiency before phosphorylation” value was 38.8%±7.36%.
As for `CC(C)NCC(O)c1ccc(O)c(O)c1` (stereo not shown) [ISO, isoproterenol], the “emission ratio change with AKAR3-NES compared to the AKAR3 assay” value in the experiment with PKA activity [3] (AKAR3-NES, plate reader, FIG. 1d) is given as “larger increase in emission ratio followed by a more rapid decrease”. Besides, in the experiment on PKA activity [3], the “increase in yellow-to-cyan emission ratio of AKAR3” value was 22.1%±0.7%. Further, the “average response of plasma membrane-targeted AKAR3” value in the experiment on PKA activity [1] (HEK-293, 1 μM ISO, n=3, FIG. 7a) is on record as 34.3%±5.4%. For the same compound, the “maximum response (emission ratio elevation) of AKAR3.2” value with PKA activity [1] (HEK-293 cells expressing AKAR3.2, 1 μM ISO, FIG. 6) is reported as “approximately 65%”. The “agonist screen: AKAR response” value in the experiment on PKA activity [2] is listed as “stimulated AKAR responses on their own”.
